Results as given in patent US11160837B2, “Megamonas funiformis and applications thereof” (BGI SHENZHEN, priority 2017, dated 2021).

Tested on: AF24-28AC
Assay: Antibiotic sensitivity of AF24-28AC by the drug sensitive paper method
Type: cell-based, Megamonas funiformis
Conditions: for Resistance / sensitivity of AF24-28AC to the antibiotic: drug sensitive paper method, result in words
Procedure: The sensitivity of AF24-28AC to 20 common antibiotics was tested by the drug sensitive paper method. 100 μl of AF24-28AC bacterial solution cultured to the logarithmic phase was spread plated. Antibiotic susceptibility papers (purchased from Hangzhou Microbial Reagent Co. LTD.) were affixed on the medium surface of plates, cultured at 37° C. for 48 hours, after which the size of inhibition zone was measured.

Row | Molecule | Diameter of inhibition zone (antibiotic susceptibility papers on plates spread with AF24-28AC, 37° C., 48 hours) [cm] | Resistance / sensitivity of AF24-28AC to the antibiotic
1 | CN(C)[C@@H]1C(=O)C(C(N)=O)=C(O)[C@@]2(O)C(=O)C3=C(O)c4c(O)cccc4[C@@](C)(O)[C@H]3C[C@@H]12 [Acheomycin] | 4.2 | 
2 | CCN1CCN(C(=O)N[C@@H](C(=O)N[C@@H]2C(=O)N3C(C(=O)O)=C(CSc4nnnn4C)CS[C@H]23)c2ccc(O)cc2)C(=O)C1=O [Cefoperazone] |  | resistant
3 | Cc1onc(-c2ccccc2)c1C(=O)N[C@@H]1C(=O)N2[C@@H]1SC(C)(C)[C@@H]2C(=O)O [Oxacillin] |  | resistant
4 | Penicillin |  | resistant
